Data from paper PMC5344036 (Molecular imaging and biology : MIB : the official …, 2014).
Like-named read-outs stand apart in the source and are kept apart here.

What was measured:
α7-nAChR [1] = molecular target: T1, α7-nAChR (Homo sapiens, UniProt P36544); conditions: single human PET experiment; cited from earlier work
α7-nAChR [2] = conditions: mouse brain, prior studies of the authors; cited from earlier work
α7-nAChR [3] = conditions: baboon brain, prior studies of the authors; cited from earlier work
α7-nAChR [4] = conditions: monkey PET, injection of SSR180711; cited from earlier work
α7-nAChR [5] = molecular target: α7-nAChR (Mus musculus, UniProt P49582); type: in vivo, CD1 mice; conditions: 90 min post-tracer
Sequence of α7-nAChR (Mus musculus, UniProt P49582) (P49582 23-502): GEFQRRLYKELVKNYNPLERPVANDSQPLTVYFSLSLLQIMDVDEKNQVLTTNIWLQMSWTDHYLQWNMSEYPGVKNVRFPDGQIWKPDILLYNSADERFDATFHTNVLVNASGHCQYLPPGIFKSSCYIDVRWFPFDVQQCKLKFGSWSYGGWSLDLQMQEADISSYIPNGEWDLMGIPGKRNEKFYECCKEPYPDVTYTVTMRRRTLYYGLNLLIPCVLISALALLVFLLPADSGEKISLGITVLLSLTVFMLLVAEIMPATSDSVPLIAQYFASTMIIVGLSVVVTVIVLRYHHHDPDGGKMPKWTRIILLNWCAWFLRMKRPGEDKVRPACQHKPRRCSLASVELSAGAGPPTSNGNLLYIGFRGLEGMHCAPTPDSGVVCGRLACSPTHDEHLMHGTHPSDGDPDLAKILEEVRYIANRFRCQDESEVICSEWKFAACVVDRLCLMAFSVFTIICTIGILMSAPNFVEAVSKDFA

α7-nAChR [6] = conditions: rat hippocampus or human α7-nAChR recombinant membranes; cited from earlier work
α7-nAChRs = conditions: read-out: equilibrium dissociation constant KD; rat; cited from earlier work
[7] = [^18F]ASEM metabolite analysis in human plasma; type: in vivo; conditions: for parent [^18F]ASEM metabolized: human plasma
α7-nAChR [8] = molecular target: T1, α7-nAChR; experiment: Human PET brain imaging with [^18F]ASEM; type: in vivo

T1 sequence (P36544 23-502): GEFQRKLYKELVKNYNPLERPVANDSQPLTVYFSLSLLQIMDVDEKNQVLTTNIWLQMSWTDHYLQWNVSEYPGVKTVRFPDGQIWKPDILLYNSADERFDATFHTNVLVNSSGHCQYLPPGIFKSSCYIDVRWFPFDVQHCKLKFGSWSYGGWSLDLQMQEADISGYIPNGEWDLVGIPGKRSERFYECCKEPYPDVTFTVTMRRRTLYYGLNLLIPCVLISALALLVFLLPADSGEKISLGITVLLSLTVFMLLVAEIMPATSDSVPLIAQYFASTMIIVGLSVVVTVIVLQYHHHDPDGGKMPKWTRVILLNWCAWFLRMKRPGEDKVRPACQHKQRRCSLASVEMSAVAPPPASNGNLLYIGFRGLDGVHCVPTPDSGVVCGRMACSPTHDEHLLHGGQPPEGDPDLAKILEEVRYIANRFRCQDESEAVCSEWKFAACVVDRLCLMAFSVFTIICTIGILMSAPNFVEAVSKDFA

SMILES: [11CH3]c1ccc(OC(=O)N2CCN3CCC2CC3)cc1 [[^11C]CHIBA-1001]
- target-to-non-target ratios in the brain regions (α7-nAChR [1]): < 1.3

SMILES: O=C(Oc1ccc(Br)cc1)N1CCN2CCC1CC2 [SSR180711]
- blockade of [^18F]ASEM binding (α7-nAChR [2]): successfully blocked
- blockade of [^18F]ASEM binding (α7-nAChR [3]): successfully blocked
- reduction of [^11C]CHIBA-1001 radioactivity in the high uptake regions (α7-nAChR [4]): 25–30%

SMILES: COc1ccc(/C=C2\CCCN=C2c2cccnc2)c(OC)c1 [DMXB-A, Dimethoxybenzylidene anabaseine]
- blockade of [^18F]ASEM binding (α7-nAChR [5]; 3 mg/kg IP, hippocampus, p<0.05): 28%
- blockade of [^18F]ASEM binding (α7-nAChR [5]; 10 mg/kg IP, hippocampus, cortex, subcolliculus, p<0.01): 50–70%
- blockade of [^18F]ASEM binding (α7-nAChR [5]; 0.1, 0.3 and 1 mg/kg IP): did not show significant blockade

SMILES: Cc1ccc(OC(=O)N2CCN3CCC2CC3)cc1 [[^3H]CHIBA-1001]
- Kd (α7-nAChR [6]): 0.12 to 0.18 µM
- Kd (α7-nAChRs): 0.193 µM

SMILES: O=S1(=O)c2cc(N3CCN4CCC3CC4)ccc2-c2cccc([18F])c21 [[^18F]ASEM, 3-(1,4-diazabicyclo[3.2.2]nonan-4-yl)-6-[^18F]fluorodibenzo[b,d]thiophene 5,5-dioxide]
- time of plasma TAC peak ([7]; human arterial plasma): ≤ 1 min
- parent [^18F]ASEM metabolized ([7]; 30 min post-injection): 52.6±12.9%
- parent [^18F]ASEM metabolized ([7]; 90 min post-injection): 83.5±9.7%
- distribution volume VT, lower-binding regions (α7-nAChR [8]; entorhinal cortex, cerebellum, caudate, corpus callosum, PRGA): < 15 ml/ml
- time of peak brain uptake post-injection (α7-nAChR [8]; human brain, after IV bolus injection): 15 min
- test-retest variability (TRV) of VT (α7-nAChR [8]; medium and high VT regions, two subjects, two scans separated by a few days): 10.8±5.1%
